Entries after “also recorded” stand apart in the source; their conditions may differ.
How the values were obtained:
[1] = target: T1, rhMD2 (Homo sapiens, UniProt Q9Y6Y9); assay: SPR binding to immobilized rhMD2; settings: oligopeptides passed over immobilized rhMD2
T1 construct: Glu17-Asn160); 10-His (C); purchased R&D Systems; host or cells: E. coli
T1 sequence (Q9Y6Y9 17-160): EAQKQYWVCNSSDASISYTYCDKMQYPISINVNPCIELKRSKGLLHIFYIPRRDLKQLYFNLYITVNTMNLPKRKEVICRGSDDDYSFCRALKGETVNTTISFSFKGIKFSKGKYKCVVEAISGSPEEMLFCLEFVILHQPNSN
Description: Analysis of protein-protein and peptide-protein interactions were conducted using the BIAcore T200 instrument (GE Healthcare). Binding reactions were performed in 1×PBS buffer containing 0.01% Tween-20 (pH 7.4). The CM5 dextran chip (flow cell-2) was first activated by injection with 89 μl of 0.1 M […] and 0.1 M N-hydroxysuccinimide. An aliquot of 200 μl of 5 μg/ml of the ligand diluted in 10 mM sodium acetate (pH 4.5) was injected into flow cell-2 of the CM5 chip for immobilization. Next, 135 μl of 1 M ethanolamine (pH 8.2) was then injected to block the remaining active sites. The flow cell-1 without coating with the ligand was used as a control to evaluate nonspecific binding. The binding analyses were performed at flow rate of 30 μl/min at 25° C. To evaluate the binding, the analyte (ranging from 62.5 nM to 1.0 μM for kinetics analysis or 0.5 μM for yes/no binding analysis) was injected into flow cell-1 and -2 and the association of analyte and ligand was recorded respectively by surface plasmon resonance. The signal from the blank channel (flow cell-1) was subtracted from the channel (flow-cell 2) coated with the ligand. Data were analyzed by the BIAcore T200 Evaluation Software. For all samples, a blank injection with buffer alone was subtracted from the resulting reaction surface data. Data were globally fitted to the Lagmuir model for a 1:1 binding.
Surface plasmon resonance (SPR) analysis was utilized to determine the physical interaction and binding affinity between rhCIRP and pattern-recognition receptors and MD2. […] The sensorgrams show association and dissociation of analyte at the indicated concentration passed over to the immobilized ligand on the sensor chip, indicated as analyte/ligand on top of each diagram. […] The region of CIRP that binds to MD2 was determined via the synthesis of 32 oligopeptides (15-mer) covering the entire human CIRP sequence. The oligopeptides were passed over immobilized rhMD2 on the BIAcore instrument, followed by subsequent performance of a series of SPR analyses. Three oligopeptides with high binding affinity were indicated. […] Three oligopeptides, aa 101-115, 106-120 (C22), and 111-125 (C23) bound to rhMD2 with high affinity (FIG. 14 and FIG. 19).

[2] = test system: LPS-induced TNF-α production in differentiated THP-1 cells; assay: Peptide inhibition of LPS-induced TNF-α production in differentiated THP-1 cells (ELISA); assay type: cell-based, human
Description: Human monocytic THP-1 cells (American Type Culture Collection, Manassas, Va.), were seeded in suspension into T75 tissue culture flask at a density of 1.5×10^6 cells and cultured with RPMI-1640 medium supplemented with 10% heat-inactivated fetal bovine serum, 1% penicillin/streptomycin, 2 mM glutamine and additional 0.05 mM β-mercaptoethanol at 37° C. in a humidified incubator with 5% CO2.
Cells were plated at a density of 5×10^4 per well in 96-well tissue culture plate and incubated with phorbol 12-myristate 13-acetate (20 ng/ml) for 48 h to become differentiated macrophages-like cells before experiment. Cells were used between passages 5 and 12. Cells were pretreated with indicated concentrations of CIRP-derived peptides C22 (SEQ ID NO: 13) or C23 (SEQ ID NO: 12) for 1 h, and then incubated in the absence or presence rmCIRP or LPS (from E. coli O111:B4, Sigma St. Louis, Mo.) with Opti-MEM-medium for 6 h. The cell-free supernatants were assayed for TNF-α by ELISA.
Supernatants were measured for TNF-α levels using a commercially available enzyme-linked immunosorbent assay (ELISA) kits-human TNF-α set (BioSource International, Camarillo, Calif.) according to the manufacturer's instruction.
The CIRP-derived peptides were also found to modulate LPS-induced TNF-α release in differentiated THP-1 cells. […] The doses of C22 or C23 at 2 ng/ml, equivalent to 1.3 pmol/ml and LPS at 10 ng/ml, equivalent to 0.67 pmol/ml, peptides and LPS molar ratios at 2:1 were used to treat cells.

[3] = test system: LPS-induced TNF-α release, RAW 264.7 cells; assay: Polymyxin B on LPS-induced TNF-α release from RAW 264.7 cells; assay type: cell-based, murine; settings: PMB 120 U/ml, LPS 10 ng/ml, 8 hours
Description: (§1) Murine macrophage-like RAW 264.7 cells were obtained from ATCC (American Type Culture Collection, Manassas, Va.), and were grown in Dulbecco's Modified Eagle's Medium (DMEM, Life Technologies, Grand Island, N.Y.) containing 10% (vol/vol) FBS (heat-inactivated at 56° C. for 30 min), 100 U/ml penicillin, 100 μg/ml streptomycin and 2 mM glutamine. Cells were re-suspended in medium and incubated in 6 or 48-well tissue-culture plates overnight in a humidified incubator (37° C., 5% CO2). In the experiments, cell monolayers were stimulated with or without recombinant CIRP at various indicated concentrations and for various indicated times. The cell-free supernatants were assayed for TNF-α by ELISA or for HMGB1 by western blot analysis.
(§2) To conduct this experiment, rmCIRP (1.5 μg/ml or LPS (10 ng/ml) was treated with polymyxin B (PMB, 120 U/ml) or heated at 80° C. for 30 min before being added to RAW 264.7 cells for 8 hours. *P<0.05 vs. rmCIRP; #P<0.05 vs. LPS.

[4] = test system: rmCIRP-induced TNF-α production, RAW 264.7 cells; assay: Polymyxin B on rmCIRP-induced TNF-α production in RAW 264.7 cells; assay type: cell-based, murine; settings: PMB 120 U/ml, rmCIRP 1.5 μg/ml, 8 hours
Description: as §1, §2

[5] = test system: MLVEC stimulated with rmCIRP; assay: rmCIRP-stimulated mouse lung vascular endothelial cells (MLVEC); assay type: cell-based; settings: C23 200 ng/ml
Description: MLVEC were treated with rmCIRP in the presence of C23 or non-specific oligopeptide P5 (negative control) for 4 hours. Cells were harvested, lysed and the cell lysate analyzed by SDS-PAGE and Western blotting (immunodetection). Referring to FIG. 23A, ICAM-1 expression is abrogated in the presence of 200 ng/ml of the oligopeptide C23.
Similarly, the release of IL-1beta by MLVEC stimulated by rmCIRP was blocked (as determined by ELISA) when 200 ng/ml of the oligopeptide C23 was added to the media, as shown in FIG. 23B. (For FIGS. 23A and 23B: Mean+/−SD, n=3, *P<0.05 vs. groups without C23.)

[6] = test system: mice subjected to CLP; assay: Mouse CLP sepsis, markers 24 hours post-CLP; assay type: in vivo; settings: 8 mg/kg 2 hours after CLP
Description: Mice subjected to CLP were treated 2 hours later with the oligopeptide C23 (8 mg/kg) or saline.
In FIGS. 23A through 23C: Mean+/−SD; n=4-8/group; *P<0.05 vs. sham, #P<0.05 vs. vehicle, one-way ANOVA. mRNA amounts are measured by qPCR; protein levels are measured by ELISA.

[7] = test system: septic mice (CLP); assay: Mouse CLP severe sepsis survival study; assay type: in vivo
Description: Mice were subjected to CLP and treated immediately after operation with the antibiotic imipenem ([…] BW) and resuscitative fluid. At 2 hours after CLP, mice were administered C23 (8 mg/kg BW) or an equivalent volume of normal saline (vehicle) via the internal jugular vein. Survival was then assessed every 12 hours.

[8] = target: TLR4 (Homo sapiens, UniProt O00206); settings: literature; read-out: KD, binding to TLR4; cited from earlier work
[9] = test system: THP-1 cells; assay: TNF-α release from differentiated THP-1 cells stimulated with recombinant proteins; assay type: cell-based, human; settings: 0.3 μg/ml each protein, 8 h, ELISA
Description: As with the murine model, the stimulation of TNF-α, release by rCIRP in a human model was studied. […] These experiments were conducted by incubating differentiated human THP-1 cells with rhCIRP or rmCIRP at the indicated concentrations for 4 h. *P<0.05 vs. no CIRP. Similarly, human PBMC were incubated with the indicated concentrations of rhCIRP for 8 h. *P<0.05 vs. no rhCIRP. Thus, stimulation of cytokine release by CIRP was not attributable to LPS contamination. Furthermore, CIRP-induced cytokine activation was conserved between rodents and humans.
rmCIRP induced TNF-α and HMGB1 release in macrophages (FIGS. 10a, b and c). It was reported that HMGB1 can also stimulate TNF-α release (Andersson, U., et al. High mobility group 1 protein (HMG-1) stimulates proinflammatory cytokine synthesis in human monocytes. J. Exp. Med. 192, 565-570 (2000)). The relationship between CIRP and HMGB1 on stimulating TNF-α release was analyzed by applying respective neutralizing antibodies. […] After 4 h, TNF-α levels in conditioned medium (CM) were assayed by ELISA. Data are mean±s.e.m. from three independent experiments. *P<0.05 vs. rmCIRP+ control IgG. In FIG. 16D, RAW 264.7 cells were pre-incubated with rabbit control IgG or anti-CIRP antibodies at indicated dilutions of 1 mg/ml for 20 min before adding 1.0 μg/ml rmCIRP. After 4 h, TNF-α levels in CM were assayed by ELISA. Data are mean±s.e.m. from three independent experiments. *P<0.05 vs. rmCIRP+ control IgG. THP-1 cells were incubated with 4 μg/ml of anti-CIRP antibodies, anti-HMGB1 antibodies, or non-immunized control IgG for 1 h prior to adding rmCIRP (0.3 μg/ml), rmHMGB1 (0.3 μg/ml), or rmCIRP/rmHMGB1 (0.3 μg/ml, 0.3 μg/ml) for 8 h. *P<0.05 vs. rmCIRP; #P<0.05 vs. rmHMGB1. […] Furthermore, rmCIRP, rmHMGB1, and rmCIRP plus rmHMGB1 induced TNF-α levels of 0.8, 0.6, and 1.6 ng/ml, respectively. […] TNF-α levels in all collected CM were assayed by ELISA. Data are mean±s.e.m. from three or four independent experiments.
Murine macrophage-like RAW 264.7 cells and human monocyte THP-1 cells were obtained from ATCC (Manassas, Va.). […]

Chain of TLR4 (O00206 24-631 limits assumed, species assumed): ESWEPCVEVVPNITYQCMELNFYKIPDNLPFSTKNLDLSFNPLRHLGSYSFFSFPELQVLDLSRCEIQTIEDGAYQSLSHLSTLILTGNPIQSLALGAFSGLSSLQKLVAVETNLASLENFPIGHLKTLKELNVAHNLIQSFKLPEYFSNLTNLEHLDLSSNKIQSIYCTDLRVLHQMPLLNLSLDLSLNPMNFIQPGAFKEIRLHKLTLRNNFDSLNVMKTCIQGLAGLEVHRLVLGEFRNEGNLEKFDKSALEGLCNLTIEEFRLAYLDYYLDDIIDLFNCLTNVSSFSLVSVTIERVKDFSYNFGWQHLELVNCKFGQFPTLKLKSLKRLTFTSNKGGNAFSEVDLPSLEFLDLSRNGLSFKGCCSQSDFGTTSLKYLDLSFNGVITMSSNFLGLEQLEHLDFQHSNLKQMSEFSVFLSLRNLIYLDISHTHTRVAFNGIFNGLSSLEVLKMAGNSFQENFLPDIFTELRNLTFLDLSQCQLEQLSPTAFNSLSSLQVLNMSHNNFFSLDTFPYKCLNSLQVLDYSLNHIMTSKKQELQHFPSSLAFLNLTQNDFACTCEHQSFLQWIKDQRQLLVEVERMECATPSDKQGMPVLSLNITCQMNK

GGRGRGRGFSRGGGD (fragment of CIRP) [C22, 15-mer oligopeptide derived from human CIRP]
binding affinity of 15-mer oligopeptides to rhMD2 (in words) [1]: high affinity
effect on LPS-induced TNF-α release in THP-1 cells (in words) [2]: inhibit

Polymyxin B
inhibition of LPS-induced TNF-α release [3]: 84%
effect on rmCIRP-induced TNF-α production [4]: did not interfere

GRGFSRGGGDRGYGG (fragment of CIRP) [C23, 15-mer oligopeptide derived from human CIRP]
binding affinity of 15-mer oligopeptides to rhMD2 (in words) [1]: high affinity; also recorded: highest affinity
effect on LPS-induced TNF-α release in THP-1 cells (in words) [2]: inhibit
ICAM-1 expression in MLVEC ([5]; 4 hours, Western blot): abrogated
release of IL-1beta by MLVEC ([5]; ELISA): blocked
serum levels of TNF-α and IL-6 [6]: lower
expression of E-selectin, ICAM-1, TNF-α and IL-1β in the lungs ([6]; 24 hours post-CLP): significant decrease
survival (Kaplan-Meier, in words) ([7]; 8 mg/kg BW 2 hours after CLP, all vehicle mice died within 48 hours): some of C23-treated mice lived longer
average survival time ([7]; 8 mg/kg BW via internal jugular vein 2 hours after CLP, with imipenem): 44.2 h

RGFFRGGRGRGRGFS (fragment of CIRP) [C21, 15-mer oligopeptide derived from human CIRP]
binding affinity of 15-mer oligopeptides to rhMD2 (in words) [1]: high affinity
effect on LPS-induced TNF-α release in THP-1 cells (in words) [2]: does not suppress

B1: rhMD2: recombinant human MD2 (Glu17-Asn160) with 10-His tag, expressed from E. coli, R&D Systems (protein)
chain: EAQKQYWVCNSSDASISYTYCDKMQYPISINVNPCIELKRSKGLLHIFYIPRRDLKQLYFNLYITVNTMNLPKRKEVICRGSDDDYSFCRALKGETVNTTISFSFKGIKFSKGKYKCVVEAISGSPEEMLFCLEFVILHQPNSNHHHHHHHHHH
Kd [8]: 62.9 nM

B2: rmHMGB1: recombinant HMGB1 produced as in Yang et al. 2004 (protein, UniProt P63158 1-215, looked up)
High mobility group protein B1: MGKGDPKKPRGKMSSYAFFVQTCREEHKKKHPDASVNFSEFSKKCSERWKTMSAKEKGKFEDMAKADKARYEREMKTYIPPKGETKKKFKDPNAPKRPPSAFFLFCSEYRPKIKGEHPGLSIGDVAKKLGEMWNNTAADDKQPYEKKAAKLKEKYEKDIAAYRAKGKPDAAKKGVVKAEKSKKKKEEEDDEEDEEDEEEEEEEEDEDEEEDDDDE
induced TNF-α levels [9]: 0.6 ng/mL
